The results in this text go back to paper PMC8385015, “Tumour-on-chip microfluidic platform for assessment of drug pharmacokinetics and treatment response” (Communications Biology, 2021).

The nature of one series: in vivo. To be noted: mouse. The protocol:
The samples were collected at 5, 15, 40 min, and 1, 2, 4, 6, 8 and 24 h.
Whole blood was mixed 1:5 with PBS and centrifuged at 1500×g for 3 min at 4 °C, and the plasma was extracted and frozen at –80 °C.
Using this PK model, a time course of free plasma concentrations of both drugs was simulated (Table 1).
Acidified acetonitrile ([…]) was added with the internal standard, followed by centrifugation at 3000 rpm for 10 min. Supernatant ([…]) was then removed to a clean plate and dried under nitrogen. […]
Supplementary Method 8. Pharmacokinetic models parameters used for simulations
AZD156 PK model and PK parameters used for simulations

Another series concerns SW620 xenograft. The format is in vivo. To be noted: irinotecan 50 mg/kg IP day 1 weekly + vehicle PO, single animals. The protocol:
We tested different weekly in vivo dosing schedules, previously evaluated in SW620 spheroids on the chip (Fig. 5a) using matched exposure profiles to those previously observed in mouse plasma.
Male immunocompromised Hsd:Athymic Nude-Foxn1nu mice (Envigo) were used for xenograft tumour implantation. […] Animals were randomised into groups of 9–15 when tumours reached a volume of ~0.30 cm[3] and 4 weekly cycles of treatment commenced.
Tumours were measured twice weekly (length × width) by bilateral Vernier calliper measurements and tumour volume calculated using Mousetrap software. Tumour growth inhibition from start of treatment was assessed by comparison of the mean change in tumour volume for the control and treated groups using the Mousetrap application and represented as TGI.

[1] abbreviates: population PK model parameter, mean.

Structures are written as SMILES. Where “and” joins values, the source holds several entries; their conditions need not be identical. Equal values may be shown once. Read-outs that look alike come from different tables or passages of the source.

`CCc1c2c(nc3ccc(OC(=O)N4CCC(N5CCCCC5)CC4)cc13)-c1cc3c(c(=O)n1C2)COC(=O)[C@]3(O)CC` [Irinotecan]: in “in vivo” (female, CB-17 SCID, in vivo), the Michaelis-Menten constant (Km) was found to be 6.12 nM and the “Q/(1-F4)” value is 0.0574 L/h. Further, in the series “in vivo” (setting [1]), the “FM*” value is recorded as 0.286, the “V2/(1-F4)” value turned out to be 0.0161 L, the “V3/(1-F4)” value came out at 5.26 L and the Vmax stood at 0.0589 µM/h. The molecule also gave a ka in the series “in vivo” (setting [1]) of 0.454 h⁻¹. Also, in the series with SW620 xenograft (day 7 (fig 5b 01)), the Tumour size was 0.6466 cm^3 and 0.9799 cm^3 and 0.6666 cm^3 and 1.05 cm^3 and 0.9864 cm^3 and 1.225 cm^3 and 0.8608 cm^3 and 0.8801 cm^3 and 0.7589 cm^3 and 0.364 cm^3 and 1.22 cm^3 and 1.71 cm^3 and 0.9487 cm^3 and 0.9159 cm^3 and 0.8306 cm^3. Moreover, in the series on SW620 xenograft (day 15 (fig 5b 02)), the Tumour size was 1.28 cm^3 and 1.619 cm^3 and 0.8212 cm^3 and 0.6967 cm^3 and 1.922 cm^3 and 1.901 cm^3 and 1.374 cm^3 and 0.7853 cm^3 and 2.931 cm^3. The Tumour size with SW620 xenograft (day 35 (fig 5b 03)) was 3.4844 cm^3 and 2.894 cm^3 and 2.205 cm^3 and 2.6873 cm^3 and 2.88 cm^3 and 1.604 cm^3 and 1.682 cm^3.
